Values of other authors as cited in PMC4801399, “Impact of a CXCL12/CXCR4 Antagonist in Bleomycin (BLM) Induced Pulmonary Fibrosis and Carbon Tetrachloride (CCl4) Induced Hepatic Fibrosis in Mice” (PLoS ONE, 2016).

Assays:
liver fibrosis = details: cited from earlier work
BLM induced PF = details: cited from earlier work

SMILES: c1cc(CN2CCCNCCNCCCNCC2)ccc1CN1CCCNCCNCCCNCC1 [AMD3100]
- liver fibrosis (liver fibrosis): increased
- transcript levels of Acta2 and Col1a1 (liver fibrosis): increased
- number of fibrocytes in the lung (BLM induced PF; 3 and 7 days post BLM treatment): decreased
- mortality associated with BLM induced PF (BLM induced PF): alleviate
- lung fibrosis and fibrocyte infiltration into the lung (BLM induced PF; murine model of BLM induced PF): reduce
